# Source: patent US20210213020A1, “METHODS AND PHARMACEUTICAL COMPOSITIONS FOR TREATING CANCER” (INSERM (INSTITUT NATIONAL DE LA SANTÉ ET DE LA RECHIRCHE …, priority 2018, published 2021)
# Key:
# [1] = female, Balb/C, mouse, in vivo; for Time by which erythrocyte PLP levels approach baseline concentrations after injection: ip
# Description: Blood was collected in heparin. Measurements of B6 vitamers were done by HPLC.28
# [2] = mice, one or two injections of PM at 150 or 450 mg/kg
# [3] = molecular target: purified rabbit liver SHMT; settings: read-out: Kd of SHMT for PLP; cited from earlier work
# human recombinant SHMT1 = molecular target: T1, human recombinant SHMT1 (Homo sapiens, UniProt P34896); settings: human recombinant SHMT1 (ref 23); read-out: Kd of SHMT for PLP; cited from earlier work
# T1 sequence (P34896 1-483): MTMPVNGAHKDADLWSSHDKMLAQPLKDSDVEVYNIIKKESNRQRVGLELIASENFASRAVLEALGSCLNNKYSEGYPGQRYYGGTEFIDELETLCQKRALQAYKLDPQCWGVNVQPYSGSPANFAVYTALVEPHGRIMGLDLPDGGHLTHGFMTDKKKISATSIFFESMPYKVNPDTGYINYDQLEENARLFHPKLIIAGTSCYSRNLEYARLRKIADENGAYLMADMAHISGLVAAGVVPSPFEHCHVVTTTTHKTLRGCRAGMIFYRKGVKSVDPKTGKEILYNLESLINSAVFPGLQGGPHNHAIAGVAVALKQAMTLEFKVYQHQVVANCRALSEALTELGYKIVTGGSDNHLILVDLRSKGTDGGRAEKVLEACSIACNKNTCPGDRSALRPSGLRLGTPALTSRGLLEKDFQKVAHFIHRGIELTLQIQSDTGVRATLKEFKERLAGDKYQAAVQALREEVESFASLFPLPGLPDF
# human recombinant SHMT2 = molecular target: T2, human recombinant SHMT2 (Homo sapiens, UniProt P34897); settings: human recombinant SHMT2 (ref 23); read-out: Kd of SHMT for PLP; cited from earlier work
# T2 sequence (P34897 30-504): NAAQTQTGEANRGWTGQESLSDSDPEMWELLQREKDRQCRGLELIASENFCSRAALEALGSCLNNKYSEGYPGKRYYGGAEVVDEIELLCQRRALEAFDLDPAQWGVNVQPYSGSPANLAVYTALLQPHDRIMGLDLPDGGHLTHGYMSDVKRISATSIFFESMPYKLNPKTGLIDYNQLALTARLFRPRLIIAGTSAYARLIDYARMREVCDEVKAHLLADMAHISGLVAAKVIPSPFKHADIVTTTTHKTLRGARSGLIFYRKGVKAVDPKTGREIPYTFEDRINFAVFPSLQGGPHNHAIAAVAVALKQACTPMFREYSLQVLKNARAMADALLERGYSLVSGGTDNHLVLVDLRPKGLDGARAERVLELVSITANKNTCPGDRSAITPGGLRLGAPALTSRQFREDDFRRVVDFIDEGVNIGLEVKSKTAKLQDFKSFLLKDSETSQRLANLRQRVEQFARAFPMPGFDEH
# [4] = molecular target: T3, Human recombinant cytoplasmic cSHMT (Homo sapiens, UniProt P34896); settings: human recombinant cytoplasmic cSHMT (ref 22); read-out: Kd of SHMT for PLP; cited from earlier work
# T3 sequence (P34896 1-483): T1 sequence (P34896 1-483)
# Cancer cells = test: Cytotoxic properties per se of folinic acid and PLP; type: cell-based; settings: in concentrations used in the present experiment (folinic acid 20, PLP 160 μmon)
# Description: (§1) Cancer cells were exposed in 12 well-cell plates to FUra in various concentrations under four conditions; either as a single agent [FUra]; in combination with [6R,S]-folinic acid (20 μmon) [FUra-FA]; in combination with PLP (160 μmon; Sigma-Aldrich) [FUra-PLP]; and with both agents [6R,S]-folinic acid (20 μmon), and PLP (160 μmon) together [FUra-AF-PLP]. Cells were harvested 72 hours from start of the exposure. Cell viability was measured with the Trypan Blue dye exclusion test in Malassez chambers or by flow cytometry. For the latter method, living cells defined by light double scatter were counted in a BD Accuri C6 flow cytometer (BD Biosciences). Experiments were in duplicate.
# [5] = system: L1210 murine lymphocytic leukemia; test: Cytotoxicity (cell growth inhibition) in vitro, 72 h exposure, L1210; type: cell-based; settings: Mus musculus, 72 hour-incubation, FA 20 μmol/L and/or PLP 160 μmol/L where present, read-out: IC50 in μmol/L of FUra (95% CI)
# Description: (§2) The human colorectal carcinoma cell lines HT29, and HCT116 and the murine L1210 lymphocytic leukemia were thawed from mycoplasma-free frozen stocks and were controlled for contamination. Cells were grown in customized DMEM cell culture medium without any B6-vitamer (Gibco; Life Technologies) supplemented with 10% FBS and antibiotics (streptomycin, 50 μg/ml, and penicillin, 50 U/ml) at 37° C. in an atmosphere containing 5% CO2.
# as §1
# (§3) Growth inhibition data obtained with FUra as a single agent [FUra], FUra with folinic acid [FUra-FA], FUra with PLP [FUra-PLP], and FUra with both folinic acid and PLP combined [FUra-FA-PLP] were studied according to the Median Effect principle for concentration-effect analysis. […]
# [6] = system: HCT116 human colorectal carcinoma cell line; test: Cytotoxicity (cell growth inhibition) in vitro, 72 h exposure, HCT116; type: cell-based; settings: HCT-116, 72 hour-incubation, FA 20 μmol/L and/or PLP 160 μmol/L where present, read-out: IC50 in μmol/L of FUra (95% CI)
# Description: as §2, §1, §3
# [7] = system: HT29 human colorectal carcinoma cell line; test: Cytotoxicity (cell growth inhibition) in vitro, 72 h exposure, HT29; type: cell-based; settings: HT-29, 72 hour-incubation, FA 20 μmol/L and/or PLP 160 μmol/L where present, read-out: IC50 in μmol/L of FUra (95% CI)
# Description: as §2, §1, §3
smiles,measurement,setting,value
"Cc1ncc(CO)c(CO)c1O [PN, pyridoxine, reference compound]",Time by which erythrocyte PLP levels approach baseline concentrations after injection,[1],≤ 12 h
"Cc1ncc(CO)c(CN)c1O [PM, pyridoxamine]",Signs of acute toxicity,[2],No signs of acute toxicity
same,"Peak erythrocyte PLP concentration, 450 mg/kg versus 150 mg/kg",[1],about 6 fold
same,Time by which erythrocyte PLP levels approach baseline concentrations after injection,[1],≤ 12 h
"Cc1ncc(COP(=O)(O)O)c(C=O)c1O [PLP, pyridoxal 5′-phosphate]",Kd,[3],700 nM
same,Kd,human recombinant SHMT1,250 nM
same,Kd,human recombinant SHMT2,440 nM
same,Kd,[4],850 nM
same,Cytotoxic properties per se,Cancer cells,neither folinic acid nor PLP carry cytotoxic properties per se
"Nc1nc2c(c(=O)[nH]1)N(C=O)C(CNc1ccc(C(=O)N[C@@H](CCC(=O)O)C(=O)O)cc1)CN2 (stereo partly shown) [folinic acid, N5-formyl tetra hydro pteroylglutamate, reference compound]",Cytotoxic properties per se,Cancer cells,neither folinic acid nor PLP carry cytotoxic properties per se
"O=c1[nH]cc(F)c(=O)[nH]1 [FUra, 5-fluorouracil]",IC50,[5],0.47 µmol/L
same,IC50,[6],1.31 µmol/L
same,IC50,[7],1.18 µmol/L
